Data from PMC3961306, “Comparison of the Cancer Gene Targeting and Biochemical Selectivities of All Targeted Kinase Inhibitors Approved for Clinical Use” (PLoS ONE, 2014).
Where two headings read alike, the source gives them in different places.

Key:
[1] = system: forty-four human cancer cell lines; test: Cell proliferation assay (ATPlite, 72 hours) in the 44 cell line Oncolines panel; assay type: cell-based; settings: Homo sapiens
[2] = biological target: panel of more than 300 wild-type and mutant kinases (313 kinase panel) (Homo sapiens, UniProt P00519); test: Kinase profiling in a biochemical assay panel (mobility shift assays and ELISA), %-inhibition at 1 μM; selectivity entropy; settings: kinase ABL; 1 μM compound
[3] = biological target: panel of more than 300 wild-type and mutant kinases (313 kinase panel) (Homo sapiens, UniProt P00519, E255K); test: as above; settings: kinase ABL(E255K); 1 μM compound
[4] = biological target: panel of more than 300 wild-type and mutant kinases (313 kinase panel) (Homo sapiens, UniProt P07947, T348I); test: as above; settings: kinase YES(T348I); compound at 1 μM
[5] = biological target: panel of more than 300 wild-type and mutant kinases (313 kinase panel) (Homo sapiens, UniProt P09619); test: as above; settings: kinase PDGFRβ; 1 μM
[6] = biological target: panel of more than 300 wild-type and mutant kinases (313 kinase panel) (Homo sapiens, UniProt P11362, V561M); test: as above; settings: kinase FGFR1(V561M); compound at 1 μM
[7] = biological target: panel of more than 300 wild-type and mutant kinases (313 kinase panel) (Homo sapiens, UniProt P15056); test: as above; settings: kinase BRAF; 1 μM compound
[8] = biological target: panel of more than 300 wild-type and mutant kinases (313 kinase panel) (Homo sapiens, UniProt P15056, V600E); test: as above; settings: kinase BRAF(V600E); 1 μM compound
[9] = biological target: panel of more than 300 wild-type and mutant kinases (313 kinase panel) (Homo sapiens, UniProt P35968); test: as above; settings: kinase KDR; compound at 1 μM
[10] = biological target: panel of more than 300 wild-type and mutant kinases (313 kinase panel) (Homo sapiens, UniProt Q9UM73, R1275Q); test: as above; settings: kinase ALK(R1275Q); 1 μM compound
[11] = biological target: panel of more than 300 wild-type and mutant kinases (313 kinase panel) (Homo sapiens, UniProt P00533); test: as above; settings: kinase EGFR; compound at 1 μM
[12] = biological target: panel of more than 300 wild-type and mutant kinases (313 kinase panel) (Homo sapiens, UniProt P00533, L858R); test: as above; settings: kinase EGFR(L858R); compound at 1 μM
[13] = biological target: panel of more than 300 wild-type and mutant kinases (313 kinase panel) (Homo sapiens, UniProt P00533, L858R/T790M); test: as above; settings: kinase EGFR(T790M/L858R); compound at 1 μM
[14] = biological target: panel of more than 300 wild-type and mutant kinases (313 kinase panel) (Homo sapiens, UniProt P00533, L861Q); test: as above; settings: kinase EGFR(L861Q); compound at 1 μM
[15] = biological target: panel of more than 300 wild-type and mutant kinases (313 kinase panel) (Homo sapiens, UniProt P00533, T790M); test: as above; settings: kinase EGFR(T790M); compound at 1 μM
[16] = 4-4 cell, read-out: cell panel IC50, J82
[17] = 4-4 cell, read-out: cell panel IC50, PA-1
[18] = 4-4 cell, read-out: cell panel IC50, SJCRH30
[19] = 4-4 cell, read-out: cell panel IC50, SR
[20] = 769-P, read-out: cell panel IC50, 769-P
[21] = 786-0, read-out: cell panel IC50, 786-0
[22] = A 172, read-out: cell panel IC50, A-172
[23] = A204, read-out: cell panel IC50, A-204
[24] = A498, read-out: cell panel IC50, A-498
[25] = A549, read-out: cell panel IC50, A-549
[26] = A-375, read-out: cell panel IC50, A375
[27] = A-427, read-out: cell panel IC50, A-427
[28] = ACHN, read-out: cell panel IC50, ACHN
[29] = AN3-CA, read-out: cell panel IC50, AN3 CA
[30] = AU565, read-out: cell panel IC50, AU-565
[31] = BT-20, read-out: cell panel IC50, BT-20
[32] = BT-549, read-out: cell panel IC50, BT-549
[33] = BXPC-3, read-out: cell panel IC50, BxPC-3
[34] = C-33-A, read-out: cell panel IC50, C-33 A
[35] = CAL-27, read-out: cell panel IC50, CAL 27
[36] = CCRF-CEM, read-out: cell panel IC50, CCRF-CEM
[37] = DLD-1, read-out: cell panel IC50, DLD-1
[38] = FaDu, read-out: cell panel IC50, FaDu
[39] = HCT-15, read-out: cell panel IC50, HCT-15
[40] = HCT-116, read-out: cell panel IC50, HCT-116
[41] = Hs-578T, read-out: cell panel IC50, Hs 578T
[42] = Jurkat E6.1, read-out: cell panel IC50, Jurkat E6.1
[43] = K562, read-out: cell panel IC50, K-562
[44] = LS174T, read-out: cell panel IC50, LS 174T
[45] = LoVo, read-out: cell panel IC50, LoVo
[46] = MG-63, read-out: cell panel IC50, MG-63
[47] = MOLT-4, read-out: cell panel IC50, MOLT-4
[48] = MeWo, read-out: cell panel IC50, MeWo
[49] = NCI-H82, read-out: cell panel IC50, NCI-H82
[50] = NCI-H460, read-out: cell panel IC50, NCI-H460
[51] = OVCAR-3, read-out: cell panel IC50, OVCAR-3
[52] = RPMI-7951, read-out: cell panel IC50, RPMI-7951
[53] = SHP77, read-out: cell panel IC50, SHP-77
[54] = SK-N-AS, read-out: cell panel IC50, SK-N-AS
[55] = SW48, read-out: cell panel IC50, SW48
[56] = SW480, read-out: cell panel IC50, SW480
[57] = SW-620, read-out: cell panel IC50, SW620
[58] = U2OS, read-out: cell panel IC50, U-2 OS
[59] = U-87 MG, 72 h, read-out: IC50 in cell proliferation assay (table S5 cellpanel data)

O=S(=O)(c1cccc2cnccc12)N1CCCNCC1 [fasudil]
IC50 [1, 16]: > 31.6 µM
IC50 [1, 17]: > 31.6 µM
IC50 [1, 18]: > 31.6 µM
IC50 [1, 19]: 14.6 µM
IC50 [1, 20]: > 31.6 µM
IC50 [1, 21]: > 31.6 µM
IC50 [1, 22]: > 31.6 µM
IC50 [1, 23]: > 31.6 µM
IC50 [1, 24]: > 31.6 µM
IC50 [1, 25]: > 31.6 µM
IC50 [1, 26]: 19.7 µM
IC50 [1, 27]: > 31.6 µM
IC50 [1, 28]: > 31.6 µM
IC50 [1, 29]: 29.8 µM
IC50 [1, 30]: > 31.6 µM
IC50 [1, 31]: > 31.6 µM
IC50 [1, 32]: > 31.6 µM
IC50 [1, 33]: > 31.6 µM
IC50 [1, 34]: > 31.6 µM
IC50 [1, 35]: > 31.6 µM
IC50 [1, 36]: > 31.6 µM
IC50 [1, 37]: > 31.6 µM
IC50 [1, 38]: > 31.6 µM
IC50 [1, 39]: > 31.6 µM
IC50 [1, 40]: > 31.6 µM
IC50 [1, 41]: > 31.6 µM
IC50 [1, 42]: > 31.6 µM
IC50 [1, 43]: > 31.6 µM
IC50 [1, 44]: > 31.6 µM
IC50 [1, 45]: > 31.6 µM
IC50 [1, 46]: > 31.6 µM
IC50 [1, 47]: > 31.6 µM
IC50 [1, 48]: > 31.6 µM
IC50 [1, 49]: > 31.6 µM
IC50 [1, 50]: > 31.6 µM
IC50 [1, 51]: > 31.6 µM
IC50 [1, 52]: > 31.6 µM
IC50 [1, 53]: > 31.6 µM
IC50 [1, 54]: > 31.6 µM
IC50 [1, 55]: > 31.6 µM
IC50 [1, 56]: > 31.6 µM
IC50 [1, 57]: > 31.6 µM
IC50 [1, 58]: > 31.6 µM
IC50 [1, 59]: > 31.6 µM
%-inhibition, ABL [2]: -8%
%-inhibition, ABL(E255K) [3]: -3%
%-inhibition of YES(T348I) [4]: 6%
%-inhibition of PDGFRβ [5]: 12%
%-inhibition of FGFR1(V561M) [6]: 2.35%
%-inhibition, BRAF [7]: -3.28%
%-inhibition, BRAF(V600E) [8]: 3.36%
%-inhibition of KDR [9]: 1.78%
%-inhibition, ALK(R1275Q) [10]: -1.83%

Cc1ccc(Nc2nccc(N(C)c3ccc4c(C)n(C)nc4c3)n2)cc1S(N)(=O)=O [pazopanib]
IC50 [1, 16]: 28.9 µM
IC50 [1, 17]: 10.6 µM
IC50 [1, 18]: 9.59 µM
IC50 [1, 19]: 6.2 µM
IC50 [1, 20]: 5.99 µM
IC50 [1, 21]: 8.1 µM
IC50 [1, 22]: 13.1 µM
IC50 [1, 23]: 0.229 µM
IC50 [1, 24]: 11.1 µM
IC50 [1, 25]: 14.8 µM
IC50 [1, 26]: 16.7 µM
IC50 [1, 27]: 7.3 µM
IC50 [1, 28]: 9.33 µM
IC50 [1, 29]: 0.289 µM
IC50 [1, 30]: 6.57 µM
IC50 [1, 31]: 19.2 µM
IC50 [1, 32]: 7.91 µM
IC50 [1, 33]: 6.71 µM
IC50 [1, 34]: 7.9 µM
IC50 [1, 35]: 18.6 µM
IC50 [1, 36]: 10.9 µM
IC50 [1, 37]: 10.5 µM
IC50 [1, 38]: 11.5 µM
IC50 [1, 39]: 11.8 µM
IC50 [1, 40]: 17.4 µM
IC50 [1, 41]: 11.5 µM
IC50 [1, 42]: 4.58 µM
IC50 [1, 43]: 12.5 µM
IC50 [1, 44]: 9.94 µM
IC50 [1, 45]: 7.39 µM
IC50 [1, 46]: 13.5 µM
IC50 [1, 47]: 6.89 µM
IC50 [1, 48]: 25.4 µM
IC50 [1, 49]: 8.41 µM
IC50 [1, 50]: 1.63 µM
IC50 [1, 51]: > 31.6 µM
IC50 [1, 52]: 15.1 µM
IC50 [1, 53]: 12.5 µM
IC50 [1, 54]: 19.4 µM
IC50 [1, 55]: 13.1 µM
IC50 [1, 56]: 10.2 µM
IC50 [1, 57]: 9.11 µM
IC50 [1, 58]: 14 µM
IC50 [1, 59]: 24 µM
%-inhibition of EGFR [11]: 17%
%-inhibition of EGFR(L858R) [12]: 36%
%-inhibition of EGFR(T790M/L858R) [13]: 43%
%-inhibition of EGFR(L861Q) [14]: 13%
%-inhibition of EGFR(T790M) [15]: 5%
%-inhibition of PDGFRβ [5]: 96%

Cc1cn(-c2cc(NC(=O)c3ccc(C)c(Nc4nccc(-c5cccnc5)n4)c3)cc(C(F)(F)F)c2)cn1 [nilotinib]
IC50 [1, 16]: 6.33 µM
IC50 [1, 17]: 13.8 µM
IC50 [1, 18]: > 31.6 µM
IC50 [1, 19]: 4.31 µM
IC50 [1, 20]: > 31.6 µM
IC50 [1, 21]: 1.11 µM
IC50 [1, 22]: 9.78 µM
IC50 [1, 23]: 0.584 µM
IC50 [1, 24]: 5.04 µM
IC50 [1, 25]: 7.29 µM
IC50 [1, 26]: 9.58 µM
IC50 [1, 27]: 6.73 µM
IC50 [1, 28]: 12.3 µM
IC50 [1, 29]: 26.1 µM
IC50 [1, 30]: 4.63 µM
IC50 [1, 31]: > 31.6 µM
IC50 [1, 32]: 3.33 µM
IC50 [1, 33]: 10.1 µM
IC50 [1, 34]: > 31.6 µM
IC50 [1, 35]: 9.84 µM
IC50 [1, 36]: 6.74 µM
IC50 [1, 37]: 7.3 µM
IC50 [1, 38]: > 31.6 µM
IC50 [1, 39]: 6.17 µM
IC50 [1, 40]: 5.75 µM
IC50 [1, 41]: 7.43 µM
IC50 [1, 42]: 11.8 µM
IC50 [1, 43]: 0.026 µM
IC50 [1, 44]: 6.11 µM
IC50 [1, 45]: 7.46 µM
IC50 [1, 46]: 8.78 µM
IC50 [1, 47]: 4.36 µM
IC50 [1, 48]: > 31.6 µM
IC50 [1, 49]: 31.2 µM
IC50 [1, 50]: 6.49 µM
IC50 [1, 51]: > 31.6 µM
IC50 [1, 52]: 7.78 µM
IC50 [1, 53]: > 31.6 µM
IC50 [1, 54]: 24 µM
IC50 [1, 55]: > 31.6 µM
IC50 [1, 56]: 18 µM
IC50 [1, 57]: 5.3 µM
IC50 [1, 58]: 5.38 µM
IC50 [1, 59]: > 31.6 µM
%-inhibition of EGFR [11]: 17%
%-inhibition of EGFR(L858R) [12]: 30%
%-inhibition of EGFR(L861Q) [14]: 11%
%-inhibition of EGFR(T790M) [15]: 7.54%
%-inhibition of KDR [9]: 22%
